# Laboratory results taken from US20060069132A1, “Azolecarboxamide herbicides” (priority 2004, published 2006).
# Read-outs that look alike come from different tables or passages of the source.
# Columns and labels:
# [1] = test system: common (oilseed) sunflower; test: Test C pre-/postemergence herbicide test; format: in vivo, Helianthus annuus
# How it was run: (§1)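 Preemergence: seeds planted and treated with compound in non-phytotoxic solvent with surfactant; postemergence: plants at 2 to 18 cm (1- to 4-leaf stage) sprayed likewise. Kept in greenhouse 12 to 14 days, then visually rated against controls, 0 (no effect) to 100 (complete control).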
# [2] = test system: common ragweed; test: Test C pre-/postemergence herbicide test; format: in vivo, Ambrosia elatior; design: key to Plant response rating, Ragweed: 0 = no effect, 100 = complete control
# How it was run: as §1
# [3] = test system: corn; test: Test C pre-/postemergence herbicide test; format: in vivo, Zea mays
# How it was run: as §1
# [4] = test system: redroot pigweed; test: Test A pre-/postemergence herbicide test; format: in vivo, Amaranthus retroflexus; conditions: for pest or weed control at 500 g/ha / pest or weed control at 2000 g/ha: Amaranthus retroflexus, 240 h
# How it was run: (§2)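 Sandy loam soil given preemergence directed spray; plants at 2 to 10 cm, one- to two-leaf stage, sprayed to runoff postemergence, compounds in non-phytotoxic solvent with surfactant. Injury rated visually versus untreated controls after about ten greenhouse days, 0 (no effect) to 100 (complete control); dash means not tested.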
# [5] = test system: giant foxtail; test: Test C pre-/postemergence herbicide test; format: in vivo, Setaria faberi
# How it was run: as §1
# [6] = test system: kochia; test: Test C pre-/postemergence herbicide test; format: in vivo, Kochia scoparia
# How it was run: as §1
# [7] = test system: barnyardgrass; test: Test A pre-/postemergence herbicide test; format: in vivo, Echinochloa crus-galli; conditions: for pest or weed control at 500 g/ha / pest or weed control at 2000 g/ha: Echinochloa crus-galli, 240 h
# How it was run: as §2
# [8] = test system: lambsquarters; test: Test C pre-/postemergence herbicide test; format: in vivo, Chenopodium album
# How it was run: as §1
# [9] = test system: velvetleaf; test: Test C pre-/postemergence herbicide test; format: in vivo, Abutilon theophrasti
# How it was run: as §1
# [10] = test system: large crabgrass; test: Test A pre-/postemergence herbicide test; format: in vivo, Digitaria sanguinalis; conditions: for pest or weed control at 500 g/ha / pest or weed control at 2000 g/ha: Digitaria sanguinalis, 240 h
# How it was run: as §2
# [11] = 62 g ai/ha, preemergence, scale 0 to 100
# [12] = 250 g ai/ha, scale 0-100, preemergence
# [13] = 125 g ai/ha, scale 0 (no effect) to 100 (complete control), visual, 12 to 14 days, preemergence
# [14] = Postemergence, 500 g ai/ha, 0 to 100 scale, 0 no effect, 100 complete control
# [15] = Postemergence, 2000 g ai/ha, 0 to 100 scale, 0 no effect, 100 complete control
# [16] = Preemergence, 2000 g ai/ha, visual rating, 0 to 100 scale (0 no effect, 100 complete control)
# [17] = preemergence, 500 g ai/ha, visual injury, 0 to 100 scale (0 no effect, 100 complete control)
compound,measurement,setting,value
"CCN1N=C(C(C)(C)C)CC1C(=O)Nc1cc(C(=O)N(C)C)ccc1F (stereo not shown) [Compound 268, N-[5-[(dimethylamino)carbonyl]-2-fluorophenyl]-3-(1,1-dimethylethyl)-1-ethyl-4,5-dihydro-1H-pyrazole-5-carboxamide]",pest or weed control at 62 g/ha,"[1]; Helianthus annuus, pre-emergence, 62 g ai/ha, preemergence, scale 0 to 100, read-out: Plant response rating, Sunflower",0%
same,pest or weed control at 250 g/ha,"[1]; Helianthus annuus, pre-emergence, 250 g ai/ha, scale 0-100, read-out: Plant response rating, Sunflower",60%
same,pest or weed control at 500 g/ha,"[1]; Helianthus annuus, pre-emergence, 500 g ai/ha, scale 0 to 100 (0 no effect, 100 complete control), visual, 12 to 14 days, read-out: Plant response rating, Sunflower",90%
same,pest or weed control at 62 g/ha,"[2]; Ambrosia artemisiifolia, pre-emergence, 62 g ai/ha, preemergence, scale 0 to 100, read-out: Plant response rating, Ragweed",70%
same,pest or weed control at 250 g/ha,"[2]; Ambrosia artemisiifolia, pre-emergence, 250 g ai/ha, scale 0-100, read-out: Plant response rating, Ragweed",100%
same,pest or weed control at 500 g/ha,"[2]; Ambrosia artemisiifolia, pre-emergence, 500 g ai/ha, scale 0 to 100 (0 no effect, 100 complete control), visual, 12 to 14 days, read-out: Plant response rating, Ragweed",100%
same,"Corn plant response rating (crop injury, 0 = no effect, 100 = complete kill) at 62 g/ha","[3]; Zea mays, pre-emergence, 312 h, 62 g ai/ha, preemergence, scale 0 to 100",10%
same,"Corn plant response rating (crop injury, 0 = no effect, 100 = complete kill) at 125 g/ha","[3]; Zea mays, pre-emergence, 312 h, 125 g ai/ha, scale 0 (no effect) to 100 (complete control), visual, 12 to 14 days",45%
same,"Corn plant response rating (crop injury, 0 = no effect, 100 = complete kill) at 250 g/ha","[3]; Zea mays, pre-emergence, 312 h, 250 g ai/ha, scale 0-100",60%
same,"Corn plant response rating (crop injury, 0 = no effect, 100 = complete kill) at 500 g/ha","[3]; Zea mays, pre-emergence, 312 h, 500 g ai/ha, scale 0 to 100 (0 no effect, 100 complete control), visual, 12 to 14 days",70%
same,pest or weed control at 500 g/ha,"[4]; post-emergence, Postemergence, 500 g ai/ha, 0 to 100 scale, 0 no effect, 100 complete control, read-out: Pigweed plant response rating",35%
same,pest or weed control at 2000 g/ha,"[4]; post-emergence, Postemergence, 2000 g ai/ha, 0 to 100 scale, 0 no effect, 100 complete control, read-out: Plant response rating, Pigweed",85%
same,pest or weed control at 2000 g/ha,"[4]; pre-emergence, Preemergence, 2000 g ai/ha, visual rating, 0 to 100 scale (0 no effect, 100 complete control), read-out: Pigweed plant response rating",100%
same,pest or weed control at 500 g/ha,"[4]; pre-emergence, preemergence, 500 g ai/ha, visual injury, 0 to 100 scale (0 no effect, 100 complete control), read-out: Pigweed plant response rating",100%
same,pest or weed control at 62 g/ha,"[5]; Setaria faberi, pre-emergence, 312 h, 62 g ai/ha, preemergence, scale 0 to 100, read-out: Plant response rating, Foxtail, Giant",80%
same,pest or weed control at 125 g/ha,"[5]; Setaria faberi, pre-emergence, 312 h, 125 g ai/ha, scale 0 (no effect) to 100 (complete control), visual, 12 to 14 days, read-out: Plant response rating, Foxtail, Giant",95%
same,pest or weed control at 250 g/ha,"[5]; Setaria faberi, pre-emergence, 312 h, 250 g ai/ha, scale 0-100, read-out: Plant response rating, Foxtail, Giant",95%
same,pest or weed control at 500 g/ha,"[5]; Setaria faberi, pre-emergence, 312 h, 500 g ai/ha, scale 0 to 100 (0 no effect, 100 complete control), visual, 12 to 14 days, read-out: Plant response rating, Foxtail, Giant",100%
same,pest or weed control at 62 g/ha,"[6]; Bassia scoparia, pre-emergence, 62 g ai/ha, preemergence, scale 0 to 100, read-out: Plant response rating, Kochia",100%
same,pest or weed control at 125 g/ha,"[6]; Bassia scoparia, pre-emergence, 125 g ai/ha, scale 0 (no effect) to 100 (complete control), visual, 12 to 14 days, read-out: Plant response rating, Kochia",100%
same,pest or weed control at 250 g/ha,"[6]; Bassia scoparia, pre-emergence, 250 g ai/ha, scale 0-100, read-out: Plant response rating, Kochia",100%
same,pest or weed control at 500 g/ha,"[6]; Bassia scoparia, pre-emergence, 500 g ai/ha, scale 0 to 100 (0 no effect, 100 complete control), visual, 12 to 14 days, read-out: Plant response rating, Kochia",100%
same,pest or weed control at 500 g/ha,"[7]; post-emergence, Postemergence, 500 g ai/ha, 0 to 100 scale, 0 no effect, 100 complete control, read-out: Barnyardgrass plant response rating",80%
same,pest or weed control at 2000 g/ha,"[7]; post-emergence, Postemergence, 2000 g ai/ha, 0 to 100 scale, 0 no effect, 100 complete control, read-out: Plant response rating, Barnyardgrass",80%
same,pest or weed control at 2000 g/ha,"[7]; pre-emergence, Preemergence, 2000 g ai/ha, visual rating, 0 to 100 scale (0 no effect, 100 complete control), read-out: Barnyardgrass plant response rating",100%
same,pest or weed control at 500 g/ha,"[7]; pre-emergence, preemergence, 500 g ai/ha, visual injury, 0 to 100 scale (0 no effect, 100 complete control), read-out: Barnyardgrass plant response rating",100%
same,pest or weed control at 62 g/ha,"[8]; Chenopodium album, pre-emergence, 62 g ai/ha, preemergence, scale 0 to 100, read-out: Plant response rating, Lambsquarters",100%
same,pest or weed control at 125 g/ha,"[8]; Chenopodium album, pre-emergence, 125 g ai/ha, scale 0 (no effect) to 100 (complete control), visual, 12 to 14 days, read-out: Plant response rating, Lambsquarters",100%
same,pest or weed control at 250 g/ha,"[8]; Chenopodium album, pre-emergence, 250 g ai/ha, scale 0-100, read-out: Plant response rating, Lambsquarters",100%
same,pest or weed control at 500 g/ha,"[8]; Chenopodium album, pre-emergence, 500 g ai/ha, scale 0 to 100 (0 no effect, 100 complete control), visual, 12 to 14 days, read-out: Plant response rating, Lambsquarters",100%
same,pest or weed control at 62 g/ha,"[9]; Abutilon theophrasti, pre-emergence, 62 g ai/ha, preemergence, scale 0 to 100, read-out: Plant response rating, Velvetleaf",60%
same,pest or weed control at 250 g/ha,"[9]; Abutilon theophrasti, pre-emergence, 250 g ai/ha, scale 0-100, read-out: Plant response rating, Velvetleaf",100%
same,pest or weed control at 500 g/ha,"[9]; Abutilon theophrasti, pre-emergence, 500 g ai/ha, scale 0 to 100 (0 no effect, 100 complete control), visual, 12 to 14 days, read-out: Plant response rating, Velvetleaf",100%
same,pest or weed control at 500 g/ha,"[10]; post-emergence, Postemergence, 500 g ai/ha, 0 to 100 scale, 0 no effect, 100 complete control, read-out: Crabgrass, Large plant response rating",50%
same,pest or weed control at 2000 g/ha,"[10]; post-emergence, Postemergence, 2000 g ai/ha, 0 to 100 scale, 0 no effect, 100 complete control, read-out: Plant response rating, Crabgrass, Large",75%
same,pest or weed control at 2000 g/ha,"[10]; pre-emergence, Preemergence, 2000 g ai/ha, visual rating, 0 to 100 scale (0 no effect, 100 complete control), read-out: Crabgrass, Large plant response rating",100%
same,pest or weed control at 500 g/ha,"[10]; pre-emergence, preemergence, 500 g ai/ha, visual injury, 0 to 100 scale (0 no effect, 100 complete control), read-out: Crabgrass, Large plant response rating",85%
CCNC(=O)c1ccc(F)c(NC(=O)c2cc(C3(C)CC3)nn2CC)c1 [Compound 300],"Plant response rating, Sunflower",[1]; [11],0
same,"Plant response rating, Sunflower",[1]; [12],5
same,"Plant response rating, Ragweed",[2]; [11],5
same,"Plant response rating, Ragweed",[2]; [12],10
same,"Plant response rating, Corn",[3]; [11],30
same,"Plant response rating, Corn",[3]; [13],30
same,"Plant response rating, Corn",[3]; [12],35
same,Pigweed plant response rating,[4]; [14],90
same,"Plant response rating, Pigweed",[4]; [15],100
same,Pigweed plant response rating,[4]; [16],100
same,Pigweed plant response rating,[4]; [17],95
same,"Plant response rating, Foxtail, Giant",[5]; [11],30
same,"Plant response rating, Foxtail, Giant",[5]; [13],65
same,"Plant response rating, Foxtail, Giant",[5]; [12],100
same,"Plant response rating, Kochia",[6]; [11],60
same,"Plant response rating, Kochia",[6]; [13],100
same,"Plant response rating, Kochia",[6]; [12],100
same,Barnyardgrass plant response rating,[7]; [14],75
same,"Plant response rating, Barnyardgrass",[7]; [15],90
same,Barnyardgrass plant response rating,[7]; [16],100
same,Barnyardgrass plant response rating,[7]; [17],90
same,"Plant response rating, Lambsquarters",[8]; [11],100
same,"Plant response rating, Lambsquarters",[8]; [13],100
same,"Plant response rating, Lambsquarters",[8]; [12],100
same,"Plant response rating, Velvetleaf",[9]; [11],5
same,"Plant response rating, Velvetleaf",[9]; [12],5
same,"Crabgrass, Large plant response rating",[10]; [14],55
same,"Plant response rating, Crabgrass, Large",[10]; [15],90
same,"Crabgrass, Large plant response rating",[10]; [16],100
same,"Crabgrass, Large plant response rating",[10]; [17],90
